pIC50: −log10 of the molar value.
Target: T1, human EP3 receptor (Homo sapiens, UniProt P43115)
T1 construct: expressed in transfected cells; host or cells: CHO K1 (Chinese Hamster Ovary), stably co-transfected with Galpha16 and mitochondrial clytin
T1 sequence (P43115 1-390): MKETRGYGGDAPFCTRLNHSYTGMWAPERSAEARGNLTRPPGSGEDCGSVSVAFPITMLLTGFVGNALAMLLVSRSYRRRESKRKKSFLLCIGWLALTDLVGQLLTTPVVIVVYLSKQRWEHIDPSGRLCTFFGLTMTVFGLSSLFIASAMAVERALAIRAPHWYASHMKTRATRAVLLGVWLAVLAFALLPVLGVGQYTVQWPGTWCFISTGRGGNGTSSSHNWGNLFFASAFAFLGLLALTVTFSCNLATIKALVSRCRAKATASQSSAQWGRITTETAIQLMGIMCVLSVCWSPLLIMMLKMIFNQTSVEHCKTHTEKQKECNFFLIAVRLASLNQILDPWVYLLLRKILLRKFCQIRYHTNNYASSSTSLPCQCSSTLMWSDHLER
Assay: Cellular in vitro assay for determining EP3 receptor activity (human EP3 cell line, sulprostone-stimulated calcium luminescence)
Type: cell-based
Settings: CHO cells expressing human EP3 and mitochondrial Clytin; antagonist mode, sulprostone at EC50; read-out: EP3 CHO mtCLY ANTAG IC50
In short: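 Antagonist activity was measured as inhibition of the luminescent calcium signal elicited by EC50 sulprostone, following 10 min compound pretreatment. The cell line was recombinant CHO K1 co-expressing human EP3, Gα16 and the photoprotein Clytin, reconstituted with coelenterazine.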

| Structure (SMILES) | pIC50 |
| --- | --- |
| Cc1nn(C)c(C)c1C(C)NC(=O)c1cc2c(=O)[nH]c(-c3ccc4ccccc4c3)cn2n1 (centres unmarked) [Example 2-21, 6-(2-Naphthyl)-4-oxo-N-[1-(1,3,5-trimethyl-1H-pyrazol-4-yl)ethyl]-4,5-dihydropyrazolo[1,5-a]pyrazine-2-carboxamide] | 8.35 |
| Cc1cc(-c2cn3nc(C(=O)NC(C)C4CCC4)c(C4CC4)c3c(=O)[nH]2)ccc1Cl (single isomer, unassigned) [6-300] | 8.48 |
| Cc1ccc(-c2cn3nc(C(=O)NCCC(O)C(F)(F)F)c(C4CC4)c3c(=O)[nH]2)cc1F (single isomer, unassigned) [6-367] | 9.16 |
| Cc1cc(C)n(C(CNC(=O)c2cc3c(=O)[nH]c(-c4ccc5ccccc5c4)cn3n2)C(C)C)n1 (centres unmarked) [Example 2-19, N-[2-(3,5-Dimethyl-1H-pyrazol-1-yl)-3-methylbutyl]-6-(2-naphthyl)-4-oxo-4,5-dihydropyrazolo[1,5-a]pyrazine-2-carboxamide] | 8.10 |
| C[C@@H](NC(=O)c1cc2c(=O)[nH]c(-c3ccc4c(c3)CCCC4)cn2n1)c1ccc(F)cc1 [Example 1-101, N-[(1R)-1-(4-Fluorophenyl)ethyl]-4-oxo-6-(5,6,7,8-tetrahydronaphthalen-2-yl)-4,5-dihydropyrazolo[1,5-a]pyrazine-2-carboxamide] | 8.77 |
| Cc1cc(-c2cn3nc(C(=O)N[C@@H](c4ccc(F)cc4)C(C)(C)O)c(C4CC4)c3c(=O)[nH]2)c(F)cc1Cl [6-594] | 9.34 |
| Cc1ccc(-c2cn3nc(C(=O)NC(CO)C(F)(F)F)c(C(F)(F)F)c3c(=O)[nH]2)cc1Cl (single isomer, unassigned) [6-163] | 8.64 |
| Cc1cccc2ncc(-c3cn4nc(C(=O)NCc5ccncc5)c(C(C)C)c4c(=O)[nH]3)cc12 [Example 4-25, 6-(5-Methylquinolin-3-yl)-4-oxo-3-(propan-2-yl)-N-[(pyridin-4-yl)methyl]-4,5-dihydropyrazolo[1,5-a]pyrazine-2-carboxamide] | 8.49 |
| C[C@@H](NC(=O)c1cc2c(=O)[nH]c(-c3ccc4ccccc4c3)cn2n1)c1ccc(F)cc1 [6-78] | 8.53 |
| CC(C)c1c(C(=O)N[C@H](CCO)c2ccc(F)cc2)nn2cc(-c3ccc(Cl)cc3)[nH]c(=O)c12 [6-670] | 8.70 |
| CCn1ccc(C(C)NC(=O)c2nn3c(C)c(-c4ccc5ccccc5c4)[nH]c(=O)c3c2C)n1 (centres unmarked) [Example 3-4, N-[1-(1-Ethylpyrazol-3-yl)ethyl]-3,7-dimethyl-6-(2-naphthyl)-4-oxo-5H-pyrazolo[1,5-a]pyrazine-2-carboxamide] | 8.59 |
| Cc1ccc(-c2cn3nc(C(=O)NC(C)COc4cc(Cl)cc(Cl)c4)cc3c(=O)[nH]2)cc1C (centres unmarked) [6-3] | 8.10 |
| Cc1cc(-c2cn3nc(C(=O)N[C@H](C)C(C)C)c(C4CC4)c3c(=O)[nH]2)ccc1C(F)(F)F [Example 1-139, 3-Cyclopropyl-N-[(2R)-3-methylbutan-2-yl]-6-[3-methyl-4-(trifluoromethyl)phenyl]-4-oxo-4,5-dihydropyrazolo[1,5-a]pyrazine-2-carboxamide] | 8.12 |
| CCn1nccc1CNC(=O)c1nn2c(C)c(-c3ccc4ccccc4c3)[nH]c(=O)c2c1C [Example 1-68, N-[(1-Ethyl-1H-pyrazol-5-yl)methyl]-3,7-dimethyl-6-(naphthalen-2-yl)-4-oxo-4,5-dihydropyrazolo-[1,5-a]pyrazine-2-carboxamide] | 8.85 |
| COC[C@H](NC(=O)c1cc2c(=O)[nH]c(-c3ccc4ccccc4c3)cn2n1)c1ccccc1 [Example 1-2, N-[(1R)-2-Methoxy-1-phenylethyl]-6-(naphthalen-2-yl)-4-oxo-4,5-dihydropyrazolo[1,5-a]pyrazine-2-carboxamide] | 8.60 |
| COCc1c(C(=O)N[C@@H](c2ccc(F)cc2)C(C)(C)O)nn2cc(-c3ccc(C)c(Cl)c3)[nH]c(=O)c12 [6-627] | 9.24 |
| Cc1c(C(=O)NCc2ccnn2C)nn2c(C)c(-c3ccc4ccccc4c3)[nH]c(=O)c12 [Example 3-11, 3,7-Dimethyl-N-[(1-methyl-1H-pyrazol-5-yl)methyl]-6-(naphthalen-2-yl)-4-oxo-4,5-dihydropyrazolo[1,5-a]pyrazine-2-carboxamide] | 8.69 |
| CC[C@H](C)NC(=O)c1nn2cc(-c3ccc(Cl)c(C)c3)[nH]c(=O)c2c1C1CC1 [6-331] | 8.31 |
| Cc1ccc(-c2cn3nc(C(=O)NC4(C)CCC4)c(C(F)(F)F)c3c(=O)[nH]2)cc1F [6-146] | 8.00 |
| CCCc1c(C(=O)NC2(c3ccc(F)cc3)CN(C)C2)nn2cc(-c3ccc(C)c(C)c3)[nH]c(=O)c12 [6-616] | 9.11 |
| Cc1cc(C)nc(CNC(=O)c2nn3cc(-c4cnc5cccc(C)c5c4)[nH]c(=O)c3c2C(C)C)n1 [Example 4-60, N-[(4,6-Dimethylpyrimidin-2-yl)methyl]-6-(5-methylquinolin-3-yl)-4-oxo-3-(propan-2-yl)-4,5-dihydropyrazolo[1,5-a]pyrazine-2-carboxamide] | 8.68 |
| CC[C@@H](C)NC(=O)c1nn2cc(-c3ccc(C)c(Cl)c3)[nH]c(=O)c2c1C1CC1 [6-271] | 9.06 |

| Structure (SMILES) | pIC50 |
| --- | --- |
| Cc1ccc(-c2cn3nc(C(=O)NCc4ccccc4)cc3c(=O)[nH]2)cc1C [6-22] | 8.40 |
| COC[C@@H](NC(=O)c1cc2c(=O)[nH]c(-c3ccc4c(c3)OCCO4)cn2n1)c1ccccc1 [6-49] | 8.80 |
| COc1ccc(C(C)NC(=O)c2cc3c(=O)[nH]c(-c4ccc5ccccc5c4)cn3n2)cc1OC (centres unmarked) [Example 2-55, N-[1-(3,4-Dimethoxyphenyl)ethyl]-6-(2-naphthyl)-4-oxo-4,5-dihydropyrazolo[1,5-a]pyrazine-2-carboxamide] | 8.94 |
| O=C(NCCc1ccccc1)c1cc2c(=O)[nH]c(-c3ccc4ccccc4c3)cn2n1 [6-14] | 8.08 |
| O=C(NC(c1ccc(F)cc1)C1(O)CC1)c1nn2cc(-c3ccc(Cl)c(F)c3)[nH]c(=O)c2c1C1CC1 (racemic) [6-96] | 9.31 |
| Cc1cccc2ncc(-c3cn4nc(C(=O)NCc5ccccn5)c(C(C)C)c4c(=O)[nH]3)cc12 [Example 4-26, 6-(5-Methylquinolin-3-yl)-4-oxo-3-(propan-2-yl)-N-[(pyridin-2-yl)methyl]-4,5-dihydropyrazolo[1,5-a]pyrazine-2-carboxamide] | 8.56 |
| Cc1ccc(-c2cn3nc(C(=O)NCC(N)C(F)(F)F)c(C4CC4)c3c(=O)[nH]2)cc1C (single isomer, unassigned) [6-432] | 8.96 |
| Cc1ccc(-c2cn3nc(C(=O)NC(CO)C(F)(F)F)c(C4CC4)c3c(=O)[nH]2)cc1F (racemic) [6-392] | 8.36 |
| Cc1ccc(-c2cn3nc(C(=O)NCC(O)C(F)(F)F)c(C4CC4)c3c(=O)[nH]2)cc1C(F)(F)F (racemic) [6-243] | 8.70 |
| O=C(NCCc1cccc(F)c1)c1cc2c(=O)[nH]c(-c3ccc4ccccc4c3)cn2n1 [Example 2-52, N-[2-(3-Fluorophenyl)ethyl]-6-(2-naphthyl)-4-oxo-4,5-dihydropyrazolo[1,5-a]pyrazine-2-carboxamide] | 8.36 |
| CC(C)(O)[C@@H](NC(=O)c1nn2cc(-c3ccc(Cl)c(Cl)c3)[nH]c(=O)c2c1C1CCC1)c1ccc(F)cc1 [6-568] | 8.98 |
| Cc1ccc(-c2cn3nc(C(=O)N[C@@H](c4ccc(F)cc4)C(C)(C)O)c(C4CC4)c3c(=O)[nH]2)cc1C(F)(F)F [6-246] | 8.24 |
| CCN1CC(NC(=O)c2nn3cc(-c4ccc5ccccc5c4)[nH]c(=O)c3c2C(F)(F)F)(c2ccc(F)cc2)C1 [Example 1-126, N-[1-Ethyl-3-(4-fluorophenyl)azetidin-3-yl]-6-(naphthalen-2-yl)-4-oxo-3-(trifluoromethyl)-4,5-dihydropyrazolo[1,5-a]pyrazine-2-carboxamide] | 8.29 |
| O=C(N[C@H](CCO)c1ccc(F)cc1)c1nn2cc(-c3ccc4ccccc4c3)[nH]c(=O)c2c1C(F)(F)F [Example 1-17, N-[(1R)-1-(4-Fluorophenyl)-3-hydroxpropyl]-6-(naphthalen-2-yl)-4-oxo-3-(trifluoromethyl)-4,5-dihydropyrazolo[1,5-a]pyrazine-2-carboxamide] | 9.24 |
| Cc1cc(-c2cn3nc(C(=O)NCCC(O)C(F)(F)F)c(C4CC4)c3c(=O)[nH]2)ccc1Cl (racemic) [6-309] | 8.95 |
| Cc1cc(-c2cn3nc(C(=O)N[C@@H](c4ccc(F)cc4)[C@H](O)C(F)(F)F)c(C4CC4)c3c(=O)[nH]2)ccc1Cl [6-315] | 8.70 |
| Cc1cc(-c2cn3nc(C(=O)N[C@H](CCO)c4ccc(F)cc4)c(C4CC4)c3c(=O)[nH]2)ccc1Cl [6-343] | 9.55 |
| COc1ccc(C2(NC(=O)c3nn4cc(-c5ccc(C)c(C)c5)[nH]c(=O)c4c3C3CC3)CN(C)C2)cc1 [6-427] | 8.29 |
| Cc1ccc(-c2cn3nc(C(=O)N[C@@H](c4ccc(F)cc4)C(C)(C)O)c(C)c3c(=O)[nH]2)c(F)c1C [Example 1-164, 6-(2-Fluoro-3,4-dimethylphenyl)-N-[(15)-1-(4-fluorophenyl)-2-hydroxy-2-methylpropyl]-3-methyl-4-oxo-4,5-dihydropyrazolo[1,5-a]pyrazine-2-carboxamide] | 8.54 |
| Cc1cc(-c2cn3nc(C(=O)N[C@@H](C)C4CC4)c(C4CC(F)(F)C4)c3c(=O)[nH]2)ccc1Cl [6-558] | 8.94 |
| Cc1ccc(-c2cn3nc(C(=O)N[C@@H](C)c4ccc(F)cc4)cc3c(=O)[nH]2)cc1Cl [6-82] | 8.74 |
| Cc1ccc(-c2cn3nc(C(=O)NC(CO)C(F)(F)F)c(C4CC4)c3c(=O)[nH]2)cc1C(F)(F)F (single isomer, unassigned) [6-249] | 8.52 |

Source: patent US20220324865A1 (Bayer Aktiengesellschaft, priority 2018, published 2022)
